System: NIH/3T3 cells
Assay: Mitogenic assay on FGF-2-responsive cells (heparin control test, CellTiter AQueous One, OD 490 nm)
Type: cell-based
Description: We developed a mitogenic assay on cells responsive to FGF-2. The assay is run in the presence of a submaximal concentration of FGF-2 (10 ng/mL). […] At 72 h of incubation in the presence of 10 ng/mL of FGF-2, the addition of 10 μg/mL of heparin increased mitogenic activity by 58%.
Organic compounds of the invention may be assayed for their effect on FGF-2 stimulation of growth using this assay. […] For example, a “hit” can be defined as an increase in activity of >50%, in the presence of 10 ng/mL FGF-2 (with no added heparin).
The details of the assay are as follows.
1. Trypsinize cells. Remove a small aliquot of cell suspension for cell count and viability.
4. Transfer 80 μL of cell suspension to the appropriate wells of three 96-well tissue culture-treated plates.
5. Incubate plates at 37° C./5% CO2 for 18 hr.
Add 80 μL/well DMEM/0.1% BCS/1% Pen-Strep (0.1% BCS media), and incubate cells for 24 hr at 37° C./5% CO2.
A mass of 20 mg of heparin was dissolved in 2.0 mL of 0.1% BCS media for a final concentration of 10 mg/mL.
Preparation of 10× Heparin Solution: The 10 mg/mL heparin solution was diluted to 100 μg/mL by adding 50 μL of the 10 mg/mL solution to 4,950 μL of 0.1% BCS media.
A 1:10 intermediate dilution was prepared by adding 10 μL of 100 μg/mL FGF-2 stock to 90 μL of 1×PBS/0.5% BSA, for a final concentration of 10 μg/mL.
Preparation of 10×FGF-2: The 1:10 intermediate was further diluted by adding 50 μL to 4,950 μL of 0.1% BCS media, for a final concentration of 100 ng/mL. The 100 ng/mL FGF-2 solution was diluted by adding 500 μL to 4,500 μL of 0.1% BCS media, for a final concentration of 10 ng/mL.
6. 5× Heparin/FGF-2 Dilutions: Mix equal volumes of 10×FGF-2 (Steps 3 and 4) and 10× heparin stocks (Step 5) to create the 5× Treatment Intermediates as shown in Tables 3 and 4.
Add 20 μL of CellTiter AQueous One Solution to each of the treated wells.
Incubate for 1 hr at 37° C./5% CO2.

[1] = heparin 0.001 μg/mL, 1 ng/mL FGF-2, 24 hr
[2] = heparin 0.001 μg/mL, 1 ng/mL FGF-2, 48 hr
[3] = heparin 0.001 μg/mL, 1 ng/mL FGF-2, 72 hr
[4] = heparin 0.001 μg/mL, 10 ng/mL FGF-2, 24 hr
[5] = heparin 0.001 μg/mL, 10 ng/mL FGF-2, 48 hr
[6] = heparin 0.001 μg/mL, 10 ng/mL FGF-2, 72 hr
[7] = heparin 0.01 μg/mL, 1 ng/mL FGF-2, 24 hr
[8] = heparin 0.01 μg/mL, 1 ng/mL FGF-2, 48 hr
[9] = heparin 0.01 μg/mL, 1 ng/mL FGF-2, 72 hr
[10] = heparin 0.01 μg/mL, 10 ng/mL FGF-2, 24 hr
[11] = heparin 0.01 μg/mL, 10 ng/mL FGF-2, 48 hr
[12] = heparin 0.01 μg/mL, 10 ng/mL FGF-2, 72 hr
[13] = heparin 0.1 μg/mL, 1 ng/mL FGF-2, 24 hr
[14] = heparin 0.1 μg/mL, 1 ng/mL FGF-2, 48 hr
[15] = heparin 0.1 μg/mL, 1 ng/mL FGF-2, 72 hr
[16] = heparin 0.1 μg/mL, 10 ng/mL FGF-2, 24 hr
[17] = heparin 0.1 μg/mL, 10 ng/mL FGF-2, 48 hr
[18] = heparin 0.1 μg/mL, 10 ng/mL FGF-2, 72 hr
[19] = heparin 1 μg/mL, 1 ng/mL FGF-2, 24 hr
[20] = heparin 1 μg/mL, 1 ng/mL FGF-2, 48 hr
[21] = heparin 1 μg/mL, 1 ng/mL FGF-2, 72 hr
[22] = heparin 1 μg/mL, 10 ng/mL FGF-2, 24 hr
[23] = heparin 1 μg/mL, 10 ng/mL FGF-2, 48 hr
[24] = heparin 1 μg/mL, 10 ng/mL FGF-2, 72 hr
[25] = heparin 10 μg/mL, 1 ng/mL FGF-2, 24 hr
[26] = heparin 10 μg/mL, 1 ng/mL FGF-2, 48 hr
[27] = heparin 10 μg/mL, 1 ng/mL FGF-2, 72 hr
[28] = heparin 10 μg/mL, 10 ng/mL FGF-2, 24 hr
[29] = heparin 10 μg/mL, 10 ng/mL FGF-2, 48 hr
[30] = heparin 10 μg/mL, 10 ng/mL FGF-2, 72 hr

Heparin
Mean OD490 [1]: 0.477
Percent Difference from 0 μg/mL Heparin Mean OD490 [1]: 2.6%
Mean OD490 [2]: 0.222
Percent Difference from 0 μg/mL Heparin Mean OD490 [2]: 12.7%
Mean OD490 [3]: 0.208
Percent Difference from 0 μg/mL Heparin Mean OD490 [3]: 4.5%
Mean OD490 [4]: 0.912
Percent Difference from 0 μg/mL Heparin OD490 [4]: 1.6%
Mean OD490 [5]: 0.641
Percent Difference from 0 μg/mL Heparin OD490 [5]: −3.0%
Mean OD490 [6]: 0.416
Percent Difference from 0 μg/mL Heparin OD490 [6]: 9.2%
Mean OD490 [7]: 0.430
Percent Difference from 0 μg/mL Heparin Mean OD490 [7]: −7.5%
Mean OD490 [8]: 0.200
Percent Difference from 0 μg/mL Heparin Mean OD490 [8]: 1.5%
Mean OD490 [9]: 0.199
Percent Difference from 0 μg/mL Heparin Mean OD490 [9]: 0.0%
Mean OD490 [10]: 0.859
Percent Difference from 0 μg/mL Heparin OD490 [10]: −4.3%
Mean OD490 [11]: 0.641
Percent Difference from 0 μg/mL Heparin OD490 [11]: −3.0%
Mean OD490 [12]: 0.417
Percent Difference from 0 μg/mL Heparin OD490 [12]: 9.4%
Mean OD490 [13]: 0.419
Percent Difference from 0 μg/mL Heparin Mean OD490 [13]: −9.9%
Mean OD490 [14]: 0.226
Percent Difference from 0 μg/mL Heparin Mean OD490 [14]: 14.7%
Mean OD490 [15]: 0.199
Percent Difference from 0 μg/mL Heparin Mean OD490 [15]: 0.0%
Mean OD490 [16]: 0.863
Percent Difference from 0 μg/mL Heparin OD490 [16]: −3.9%
Mean OD490 [17]: 0.830
Percent Difference from 0 μg/mL Heparin OD490 [17]: 25.6%
Mean OD490 [18]: 0.459
Percent Difference from 0 μg/mL Heparin OD490 [18]: 20.5%
Mean OD490 [19]: 0.398
Percent Difference from 0 μg/mL Heparin Mean OD490 [19]: −14.4%
Mean OD490 [20]: 0.202
Percent Difference from 0 μg/mL Heparin Mean OD490 [20]: 2.5%
Mean OD490 [21]: 0.212
Percent Difference from 0 μg/mL Heparin Mean OD490 [21]: 6.5%
Mean OD490 [22]: 0.938
Percent Difference from 0 μg/mL Heparin OD490 [22]: 4.5%
Mean OD490 [23]: 0.978
Percent Difference from 0 μg/mL Heparin OD490 [23]: 48.0%
Mean OD490 [24]: 0.583
Percent Difference from 0 μg/mL Heparin OD490 [24]: 53.0%
Mean OD490 [25]: 0.433
Percent Difference from 0 μg/mL Heparin Mean OD490 [25]: −6.9%
Mean OD490 [26]: 0.196
Percent Difference from 0 μg/mL Heparin Mean OD490 [26]: −0.5%
Mean OD490 [27]: 0.188
Percent Difference from 0 μg/mL Heparin Mean OD490 [27]: −5.5%
Mean OD490 [28]: 1.071
Percent Difference from 0 μg/mL Heparin OD490 [28]: 19.3%
Mean OD490 [29]: 0.992
Percent Difference from 0 μg/mL Heparin OD490 [29]: 50.1%
Mean OD490 [30]: 0.602
Percent Difference from 0 μg/mL Heparin OD490 (increase in mitogenic activity) [30]: 58.0%
Percent Difference from 0 μg/mL Heparin OD490 (increase in mitogenic activity) (heparin 10 μg/mL, 10 ng/mL FGF-2, 72 hr, listed as heparin): 58%
FGF-2 activity in the presence of heparin (increasing concentrations of heparin, FIG. 18): increased with increasing concentrations of heparin

FGF-2: basic fibroblast growth factor (bFGF, FGF-2), receptor-binding ligand
Mean OD490 (1 ng/mL FGF-2, 0 μg/mL heparin, 24 hr): 0.465
Mean OD490 (1 ng/mL FGF-2, 0 μg/mL heparin, 48 hr): 0.197
Mean OD490 (1 ng/mL FGF-2, 0 μg/mL heparin, 72 hr): 0.199
Mean OD490 (10 ng/mL FGF-2, 0 μg/mL heparin, 24 hr): 0.898
Mean OD490 (10 ng/mL FGF-2, 0 μg/mL heparin, 48 hr): 0.661
Mean OD490 (10 ng/mL FGF-2, 0 μg/mL heparin, 72 hr): 0.381
Mean OD490 (assay control, 10 ng/mL FGF-2, 24 hr): 0.884
Mean OD490 (assay control, 10 ng/mL FGF-2, 48 hr): 0.737
Mean OD490 (assay control, 10 ng/mL FGF-2, 72 hr): 0.401
